This passage reports EC50 results from BindingDB's records for doi:10.1016/j.ejmech.2016.12.029 (University of Auckland, 2017).

This experiment in a line: Inhibition of recombinant human IDO1 expressed in yeast assessed as yeast growth restoration after 40 to 45 hrs in presence of galactose.

As for `CN1CCN(C(CO)Cc2ccccc2)CC1` (stereo unspecified), the EC50 was determined as 2000 nM.
